Data reported in publication PMC11544713, “The Application of Untargeted Metabolomic Approaches for the Search of Common Bioavailable Metabolites in Human Plasma Samples from Lippia citriodora and Olea europaea Extracts” (Journal of Agricultural and Food Chemistry, 2024).

Test: Acute intervention: nutrikinetics of plasma metabolites after ingestion of O. europaea extract (untargeted HPLC-ESI-QTOF-MS)
Procedure: A total of 25 healthy individuals participated, with an average age of 27 ± 9 years and a mean body mass index (BMI) of 23 ± 3 kg/m^2. None of the participants were taking any medications or nutritional supplements nor did they have any chronic diseases or gastrointestinal issues. The sample size was established based on findings from previous bioavailability research.[14] All participants provided informed consent before participating in the study.
The intervention study was carried out at Miguel Hernández University. Following an overnight fast, the volunteers were categorized into the subsequent groups: a subgroup to evaluate the LC leaf extract (n = 8), another for the OE leaf extract (n = 8), and the placebo subgroup (n = 9). This was a double-blind study, in which sample collection and treatment were carried out uniformly across all three subgroups.
Water was provided ad libitum. Prior to the ingestion of the capsule, a nurse inserted a cannula into the ulnar vein of each volunteer’s nondominant arm, and blood samples were drawn into EDTA-coated tubes at baseline (t = 0). Blood samples were then collected at 0.5, 1, 2, 4, 6, 8, and 10 h after the consumption of the 500 mg capsule. Plasma was separated through centrifugation (10 min at 3000 rpm and 4 °C) and stored at −80 °C until further analysis.
Plasma samples were initially treated using a mixture of methanol and ethanol (50:50; v:v) to remove proteins, following previously reported protocols.[19] During the sample treatment, pooled quality controls (pooled-QC) were prepared by combining equal aliquots from each sample. These QC samples were processed by using the same protocols as the experimental biological samples.
A reversed-phase analytical C18 column (Agilent Zorbax Eclipse Plus, 1.8 μm, 4.6 × 150 mm^2) with a protective cartridge with the same packing was used. MS data were acquired in negative ionization mode, operating in full scan across a mass-to-charge ratio (m/z) range of 50–1700. The analytical method used was adapted from that described by Villegas-Aguilar et al.[19]
Metabolite nutrikinetics were studied using PKSolver, an add-in program for pharmacokinetic data analysis in Microsoft Excel. The time to reach the maximum concentration (observed Tmax) was calculated for each significant metabolite. As an untargeted metabolomic approach was used to detect the circulating metabolites, these were not quantified. Therefore, the maximum concentration (Cmax) and area under the curve (AUC) parameters were calculated in a relative way by using the deconvoluted chromatographic areas. […] Statistical differences were determined by unpaired t tests. All p values less than 0.05 were considered statistically significant.

[1] = human plasma, 500 mg capsule of O. europaea (OE) extract, oral, mean ± SD
[2] = 0.5 h after O. europaea extract

Compound | mean chromatographic area in plasma, T10 (10 h after O. europaea extract) | Cmax: relative maximum plasma level [1] | observed Tmax: time required to reach Cmax [1] | mean chromatographic area in plasma, T0.5 [2] | mean chromatographic area in plasma, T1 (1 h after O. europaea extract) | mean chromatographic area in plasma, T2 (2 h after O. europaea extract) | mean chromatographic area in plasma, T4 (4 h after O. europaea extract) | mean chromatographic area in plasma, T6 (6 h after O. europaea extract) | mean chromatographic area in plasma, T8 (8 h after O. europaea extract) | Cmax: relative maximum plasma level (human, in vivo, po, 500 mg) | observed Tmax: time required to reach Cmax (human, in vivo, po, 500 mg) | mean chromatographic area in plasma, T1 (in vivo) | mean chromatographic area in plasma, T2 (in vivo) | mean chromatographic area in plasma, T4 (in vivo) | mean chromatographic area in plasma, T6 (in vivo) | mean chromatographic area in plasma, T8 (in vivo) | mean chromatographic area in plasma, T10 (in vivo) | further results
homovanillyl alcohol glucuronide [homovanillyl alcohol glucuronide isomer 2] | 0 | 735 ± 257 relative chromatographic area | 1.6 ± 0.5 h |  |  |  |  |  |  |  |  |  |  |  |  |  |  | mean chromatographic area in plasma, T0.5 (0.5 h after O. europaea extract, listed as homovanillic alcohol glucuronide isomer 2): 242; mean chromatographic area in plasma, T1 (1 h after O. europaea extract, listed as homovanillic alcohol glucuronide isomer 2): 677; mean chromatographic area in plasma, T2 (2 h after O. europaea extract, listed as homovanillic alcohol glucuronide isomer 2): 704; mean chromatographic area in plasma, T4 (4 h after O. europaea extract, listed as homovanillic alcohol glucuronide isomer 2): 365; mean chromatographic area in plasma, T6 (6 h after O. europaea extract, listed as homovanillic alcohol glucuronide isomer 2): 165; mean chromatographic area in plasma, T8 (8 h after O. europaea extract, listed as homovanillic alcohol glucuronide isomer 2): 61
hydroxytyrosol sulfate [hydroxytyrosol sulfate isomer 1] | 45 | 593 ± 382 relative chromatographic area | 3 ± 3 h | 280 | 323 | 178 | 328 | 118 | 202 |  |  |  |  |  |  |  |  | 
COc1cc(C(=O)O)ccc1OC1OC(C(=O)O)C(O)C(O)C1O (stereo not drawn) [vanillic acid glucuronide] | 0 | 111 ± 48 relative chromatographic area | 4 ± 3 h | 0 | 37 | 77 | 63 | 44 | 22 |  |  |  |  |  |  |  |  | 
COc1cc(CCC(=O)O)ccc1O[C@@H]1O[C@H](C(=O)O)[C@@H](O)[C@H](O)[C@H]1O [dihydroferulic acid 4-O-glucuronide] |  |  |  |  |  |  |  |  |  | 171 ± 110 relative chromatographic area | 2 ± 2 h | 114 | 94 | 113 | 109 | 74 | 41 | mean chromatographic area in plasma, T0.5 (in vivo): 74
O=C(/C=C/C1=CC(=O)C(=O)C=C1)OC1CC(O)(C(=O)O)CC(O)C1O (stereo not drawn) [chlorogenoquinone] | 0 | 324 ± 7 relative chromatographic area | 0.9 ± 0.2 h | 181 | 315 | 154 | 12 | 11 | 0 |  |  |  |  |  |  |  |  | 
COc1cc(C)cc(OC)c1OC [1,2,3-trimethoxy-5-methyl benzene] | 0 | 221 ± 72 relative chromatographic area | 1 ± 0 h | 117 | 221 | 105 | 0 | 0 | 0 |  |  |  |  |  |  |  |  | 
hydroxytyrosol glucuronide [hydroxytyrosol glucuronide isomer 1] | 0 | 1002 ± 411 relative chromatographic area | 0.9 ± 0.2 h | 724 | 955 | 463 | 158 | 61 | 28 |  |  |  |  |  |  |  |  | 
OC[C@H]1O[C@@H](OCc2ccoc2)[C@H](O)[C@@H](O)[C@@H]1O (single isomer, unassigned; isomer 1) [3-furanmethanol glucoside isomer 1, 3-furanmethanol glucoside] | 0 | 236 ± 104 relative chromatographic area | 1.6 ± 0.5 h | 27 | 200 | 184 | 107 | 17 | 0 |  |  |  |  |  |  |  |  | 
COc1cc(C=O)ccc1O[C@@H]1O[C@H](C(=O)O)[C@@H](O)[C@H](O)[C@H]1O [vanillin glucuronide] |  |  |  |  |  |  |  |  |  | 180 ± 66 relative chromatographic area | 1 ± 0 h | 180 | 121 | 40 | 11 | 0 | 0 | mean chromatographic area in plasma, T0.5 (in vivo): 60
Oc1cc(O)c2c(c1)O[C@H](c1ccc(O)c(O)c1)[C@H](O)[C@H]2SCc1ccccc1 [4β-benzylthioepicatechin] | 0 | 158 ± 62 relative chromatographic area | 1.7 ± 0.5 h | 25 | 123 | 151 | 50 | 0 | 0 |  |  |  |  |  |  |  |  | 
C[C@]12CC[C@@H](O[C@@H]3O[C@H](C(=O)O)[C@@H](O)[C@H](O)[C@H]3O)C[C@@H]1CC[C@@H]1[C@@H]2C(=O)C[C@@]2(C)[C@H]1CC[C@]2(O)[C@@H](O)CO [cortolone-3-glucuronide] | 0 | 163 ± 88 relative chromatographic area | 4.4 ± 0.8 h | 0 | 0 | 0 | 160 | 82 | 63 |  |  |  |  |  |  |  |  | 
COc1cc(CCC(=O)O)ccc1OS(=O)(=O)O [dihydroferulic acid 4-sulfate] |  |  |  |  |  |  |  |  |  | 190 ± 20 relative chromatographic area | 1.3 ± 0.4 h |  |  |  |  |  |  | 
O=c1cc(-c2ccc(O)cc2)oc2c([C@@H]3O[C@H](CO)[C@@H](O)[C@H](O)[C@H]3O)c(O)c([C@@H]3O[C@H](CO)[C@@H](O)[C@H](O)[C@H]3O)c(O)c12 [vicenin-2] |  |  |  |  |  |  |  |  |  | 137 ± 59 relative chromatographic area | 1 ± 0 h | 137 | 46 | 0 | 0 | 0 | 0 | mean chromatographic area in plasma, T0.5 (in vivo): 34
oleuropein aglycone glucuronide [oleuropein aglycone glucuronide isomer 2] |  |  |  |  |  |  |  |  |  |  | 0.9 ± 0.2 h | 482 | 197 | 24 | 0 | 0 | 0 | 
10-hydroxy-7 -methoxyoleuropein [10-hydroxy-7-methoxyoleuropein isomer 2] | 0 | 241 ± 89 relative chromatographic area | 1.9 ± 0.3 h | 11 | 164 | 229 | 148 | 34 | 0 |  |  |  |  |  |  |  |  | 
kaempferol sulfate |  |  |  |  |  |  |  |  |  | 172 ± 102 relative chromatographic area | 1.1 ± 0.3 h | 165 | 59 | 0 | 0 | 0 | 0 | mean chromatographic area in plasma, T0.5 (in vivo): 25
